Measured values as given in patent publication US20260356840A1, “[1,2,4]TRIAZOLO[1,5-A]PYRIMIDINONE WRN INHIBITORS” (Nimbus Wadjet, Inc., priority 2023, published 2026).

Each compound was assayed against T1, human Werner helicase (Uniprot Q14191, amino acids 517-1235 with L1074F point mutation), WRN-BV08 (Homo sapiens, UniProt Q14191, L1074F) (assay: WRN (BV08) ADP-Glo Assay).
T1 construct: Uniprot Q14191, amino acids 517-1235 with L1074F point mutation; TEV cleavable 8xHis tag (C, cleaved yes); made in house; host or cells: Sf9 insect cells (baculovirus, pFastBac)
Assay type: biochemical

T1 sequence (Q14191 517-1235 L1074F): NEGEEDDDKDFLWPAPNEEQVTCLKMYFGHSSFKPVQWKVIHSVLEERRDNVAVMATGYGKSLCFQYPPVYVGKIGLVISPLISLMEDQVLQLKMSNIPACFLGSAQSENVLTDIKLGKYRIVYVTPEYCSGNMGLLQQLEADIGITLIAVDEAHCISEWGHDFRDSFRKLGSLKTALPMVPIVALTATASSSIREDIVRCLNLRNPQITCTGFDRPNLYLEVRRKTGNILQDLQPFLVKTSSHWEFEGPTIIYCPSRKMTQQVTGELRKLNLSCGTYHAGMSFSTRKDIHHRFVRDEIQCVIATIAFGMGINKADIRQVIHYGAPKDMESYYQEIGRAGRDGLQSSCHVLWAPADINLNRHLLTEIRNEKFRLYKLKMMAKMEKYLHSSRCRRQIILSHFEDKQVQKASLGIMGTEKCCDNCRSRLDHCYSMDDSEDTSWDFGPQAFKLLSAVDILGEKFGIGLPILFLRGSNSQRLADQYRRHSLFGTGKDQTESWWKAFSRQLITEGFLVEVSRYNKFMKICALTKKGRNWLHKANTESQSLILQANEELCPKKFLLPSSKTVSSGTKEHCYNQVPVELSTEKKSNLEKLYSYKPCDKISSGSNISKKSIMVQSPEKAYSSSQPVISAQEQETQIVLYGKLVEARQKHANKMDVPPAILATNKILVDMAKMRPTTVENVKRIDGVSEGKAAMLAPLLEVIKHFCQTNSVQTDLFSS

Compound	IC50
CCc1c(N2CCN(C(=O)c3cnn(C)c3)CC2)c(=O)n2nc(-c3cnn(CC(C)(C)O)c3)nc2n1CC(=O)Nc1ccc(C(F)(F)F)cc1Cl [Compound I-56, N-[2-chloro-4-(trifluoromethyl)phenyl]-2-{5-ethyl-2-[1-(2-hydroxy-2-methylpropyl)-1H-pyrazol-4-yl]-6-[4-(1-methyl-1H-pyrazole-4-carbonyl)piperazin-1-yl]-7-oxo-4H,7H-[1,2,4]triazolo[1,5-a]pyrimidin-4-yl}acetamide]	5 to 50 nM
CCc1c(N2CCN(C(=O)c3ccnn3C)CC2)c(=O)n2nc(-c3ccnc(OC)c3)nc2n1CC(=O)Nc1ccc(C(F)(F)F)cc1Cl [Compound I-66, N-[2-chloro-4-(trifluoromethyl)phenyl]-2-[5-ethyl-2-(2-methoxypyridin-4-yl)-6-[4-(1-methyl-1H-pyrazole-5-carbonyl)piperazin-1-yl]-7-oxo-4H,7H-[1,2,4]triazolo[1,5-a]pyrimidin-4-yl]acetamide]	5 to 50 nM
CCc1c(N2CC3CN(C(=O)c4ncnc(C)c4O)CC3C2)c(=O)n2nc(C3=CCOCC3)nc2n1CC(=O)Nc1ccc(C(F)(F)F)cc1Cl (stereo not drawn) [Compound I-8, N-[2-chloro-4-(trifluoromethyl)phenyl]-2-[2-(3,6-dihydro-2H-pyran-4-yl)-5-ethyl-6-[5-(5-hydroxy-6-methylpyrimidine-4-carbonyl)-octahydropyrrolo[3,4-c]pyrrol-2-yl]-7-oxo-4H,7H-[1,2,4]triazolo[1,5-a]pyrimidin-4-yl]acetamide]	5 to 50 nM
CCc1c(N2CCN(C(=O)CCO)CC2)c(=O)n2nc(C3=CCOCC3)nc2n1CC(=O)Nc1ccc(C(F)(F)F)cc1Cl [Compound I-24, N-[2-chloro-4-(trifluoromethyl)phenyl]-2-[2-(3,6-dihydro-2H-pyran-4-yl)-5-ethyl-6-[4-(3-hydroxypropanoyl)piperazin-1-yl]-7-oxo-4H,7H-[1,2,4]triazolo[1,5-a]pyrimidin-4-yl]acetamide]	5 to 50 nM
CCc1c(N2CCN(C(=O)c3c(O)cccc3F)CC2)c(=O)n2nc(C3=CCOCC3)nc2n1CC(=O)Nc1ccc(C(F)(F)F)cc1Cl [Compound I-1, N-[2-chloro-4-(trifluoromethyl)phenyl]-2-[2-(3,6-dihydro-2H-pyran-4-yl)-5-ethyl-6-[4-(2-fluoro-6-hydroxybenzoyl)piperazin-1-yl]-7-oxo-4H,7H-[1,2,4]triazolo[1,5-a]pyrimidin-4-yl]acetamide]	5 to 50 nM
CCc1c(N2CCN(C(=O)c3cnn(C)c3)CC2)c(=O)n2nc(C3=CCOCC3)nc2n1CC(=O)Nc1ccc(C(F)(F)F)cc1Cl [Compound I-23, N-[2-chloro-4-(trifluoromethyl)phenyl]-2-[2-(3,6-dihydro-2H-pyran-4-yl)-5-ethyl-6-[4-(1-methyl-1H-pyrazole-4-carbonyl)piperazin-1-yl]-7-oxo-4H,7H-[1,2,4]triazolo[1,5-a]pyrimidin-4-yl]acetamide]	5 to 50 nM
CCc1c(N2CCN(C(=O)c3ncc4c(c3O)OCC4)CC2)c(=O)n2nc(C3=CCOCC3)nc2n1CC(=O)Nc1ccc(C(F)(F)F)cc1Cl [Compound I-83, N-[2-chloro-4-(trifluoromethyl)phenyl]-2-[2-(3,6-dihydro-2H-pyran-4-yl)-5-ethyl-6-(4-{7-hydroxy-2H,3H-furo[3,2-c]pyridine-6-carbonyl}piperazin-1-yl)-7-oxo-4H,7H-[1,2,4]triazolo[1,5-a]pyrimidin-4-yl]acetamide]	5 to 50 nM
CCc1c(N2CCN(C(=O)c3ncnn3C)CC2)c(=O)n2nc(-c3ccnc(OC)c3)nc2n1CC(=O)Nc1ccc(C(F)(F)F)cc1Cl [Compound I-79, N-[2-chloro-4-(trifluoromethyl)phenyl]-2-[5-ethyl-2-(2-methoxypyridin-4-yl)-6-[4-(1-methyl-1H-1,2,4-triazole-5-carbonyl)piperazin-1-yl]-7-oxo-4H,7H-[1,2,4]triazolo[1,5-a]pyrimidin-4-yl]acetamide]	5 to 50 nM
CCc1c(N2CCN(C(=O)c3c(O)cncc3F)CC2)c(=O)n2nc(C3=CCOCC3)nc2n1CC(=O)Nc1ccc(C(F)(F)F)cc1Cl [Compound I-9, N-[2-chloro-4-(trifluoromethyl)phenyl]-2-[2-(3,6-dihydro-2H-pyran-4-yl)-5-ethyl-6-[4-(3-fluoro-5-hydroxypyridine-4-carbonyl)piperazin-1-yl]-7-oxo-4H,7H-[1,2,4]triazolo[1,5-a]pyrimidin-4-yl]acetamide]	5 to 50 nM
CCc1c(N2CCN(C(=O)c3cnn(C)c3)[C@H](C)C2)c(=O)n2nc(-c3ccnc(OC)c3)nc2n1CC(=O)Nc1ccc(C(F)(F)F)cc1Cl [Compound I-77, N-[2-chloro-4-(trifluoromethyl)phenyl]-2-[5-ethyl-2-(2-methoxypyridin-4-yl)-6-[(3R)-3-methyl-4-(1-methyl-1H-pyrazole-4-carbonyl)piperazin-1-yl]-7-oxo-4H,7H-[1,2,4]triazolo[1,5-a]pyrimidin-4-yl]acetamide]	5 to 50 nM
CCc1c(N2CCN(C(=O)c3nn(C)cc3O)CC2)c(=O)n2nc(C3CC3)nc2n1CC(=O)Nc1ccc(C(F)(F)F)cc1Cl [Compound I-36, N-[2-chloro-4-(trifluoromethyl)phenyl]-2-{2-cyclopropyl-5-ethyl-6-[4-(4-hydroxy-1-methyl-1H-pyrazole-3-carbonyl)piperazin-1-yl]-7-oxo-4H,7H-[1,2,4]triazolo[1,5-a]pyrimidin-4-yl}acetamide]	100 to 500 nM
CCc1c(N2CCN(C(=O)c3nsnc3O)CC2)c(=O)n2nc(C3=CCOCC3)nc2n1CC(=O)Nc1ccc(C(F)(F)F)cc1Cl [Compound I-27, N-[2-chloro-4-(trifluoromethyl)phenyl]-2-[2-(3,6-dihydro-2H-pyran-4-yl)-5-ethyl-6-[4-(4-hydroxy-1,2,5-thiadiazole-3-carbonyl)piperazin-1-yl]-7-oxo-4H,7H-[1,2,4]triazolo[1,5-a]pyrimidin-4-yl]acetamide]	5 to 50 nM
CCc1c(N2CCN(C(=O)c3cnn(C(F)F)c3)CC2)c(=O)n2nc(-c3ccnc(OC)c3)nc2n1CC(=O)Nc1ccc(C(F)(F)F)cc1Cl [Compound I-61, N-[2-chloro-4-(trifluoromethyl)phenyl]-2-(6-{4-[1-(difluoromethyl)-1H-pyrazole-4-carbonyl]piperazin-1-yl}-5-ethyl-2-(2-methoxypyridin-4-yl)-7-oxo-4H,7H-[1,2,4]triazolo[1,5-a]pyrimidin-4-yl)acetamide]	5 to 50 nM
CCc1c(N2CCN(C(=O)c3cnc(C)s3)CC2)c(=O)n2nc(-c3ccnc(OC)c3)nc2n1CC(=O)Nc1ccc(C(F)(F)F)cc1Cl [Compound I-59, N-[2-chloro-4-(trifluoromethyl)phenyl]-2-[5-ethyl-2-(2-methoxypyridin-4-yl)-6-[4-(2-methyl-1,3-thiazole-5-carbonyl)piperazin-1-yl]-7-oxo-4H,7H-[1,2,4]triazolo[1,5-a]pyrimidin-4-yl]acetamide]	5 to 50 nM

Continued, values first:

IC50	Compound
5 to 50 nM	CCc1c(N2CCN(C(=O)c3c(C)nn(C)c3OC)CC2)c(=O)n2nc(-c3ccnc(OC)c3)nc2n1CC(=O)Nc1ccc(C(F)(F)F)cc1Cl [Compound I-62, N-[2-chloro-4-(trifluoromethyl)phenyl]-2-{5-ethyl-6-[4-(5-methoxy-1,3-dimethyl-1H-pyrazole-4-carbonyl)piperazin-1-yl]-2-(2-methoxypyridin-4-yl)-7-oxo-4H,7H-[1,2,4]triazolo[1,5-a]pyrimidin-4-yl}acetamide]
5 to 50 nM	CCc1c(N2CCN(C(=O)c3c(O)cccc3OC)CC2)c(=O)n2nc(C3=CCOCC3)nc2n1CC(=O)Nc1ccc(C(F)(F)F)cc1Cl [Compound I-4, N-[2-chloro-4-(trifluoromethyl)phenyl]-2-[2-(3,6-dihydro-2H-pyran-4-yl)-5-ethyl-6-[4-(2-hydroxy-6-methoxybenzoyl)piperazin-1-yl]-7-oxo-4H,7H-[1,2,4]triazolo[1,5-a]pyrimidin-4-yl]acetamide]
5 to 50 nM	CCc1c(N2CCN(C(=O)c3nnn[nH]3)CC2)c(=O)n2nc(C3=CCOCC3)nc2n1CC(=O)Nc1ccc(C(F)(F)F)cc1Cl [Compound I-17, N-[2-chloro-4-(trifluoromethyl)phenyl]-2-[2-(3,6-dihydro-2H-pyran-4-yl)-5-ethyl-7-oxo-6-[4-(1H-1,2,3,4-tetrazole-5-carbonyl)piperazin-1-yl]-4H,7H-[1,2,4]triazolo[1,5-a]pyrimidin-4-yl]acetamide]
< 5 nM	CCc1c(N2CCN(C(=O)c3cnn(C)c3)CC2)c(=O)n2nc(-c3ccnc(OC)c3)nc2n1CC(=O)Nc1ccc(C(F)(F)F)cc1Cl [Compound I-48, N-[2-chloro-4-(trifluoromethyl)phenyl]-2-[5-ethyl-2-(2-methoxypyridin-4-yl)-6-[4-(1-methyl-1H-pyrazole-4-carbonyl)piperazin-1-yl]-7-oxo-4H,7H-[1,2,4]triazolo[1,5-a]pyrimidin-4-yl]acetamide]
< 5 nM	CCc1c(N2CCN(C(=O)c3ncc4c(c3O)CCO4)CC2)c(=O)n2nc(C3=CCOCC3)nc2n1CC(=O)Nc1ccc(C(F)(F)F)cc1Cl [Compound I-84, N-[2-chloro-4-(trifluoromethyl)phenyl]-2-[2-(3,6-dihydro-2H-pyran-4-yl)-5-ethyl-6-(4-{4-hydroxy-2H,3H-furo[2,3-c]pyridine-5-carbonyl}piperazin-1-yl)-7-oxo-4H,7H-[1,2,4]triazolo[1,5-a]pyrimidin-4-yl]acetamide]
< 5 nM	CCc1c(N2CCN(C(=O)c3nocc3O)CC2)c(=O)n2nc(C3=CCOCC3)nc2n1CC(=O)Nc1ccc(C(F)(F)F)cc1Cl [Compound I-29, N-[2-chloro-4-(trifluoromethyl)phenyl]-2-[2-(3,6-dihydro-2H-pyran-4-yl)-5-ethyl-6-[4-(4-hydroxy-1,2-oxazole-3-carbonyl)piperazin-1-yl]-7-oxo-4H,7H-[1,2,4]triazolo[1,5-a]pyrimidin-4-yl]acetamide]
< 5 nM	CCc1c(N2CCN(C(=O)c3cccc4cn[nH]c34)CC2)c(=O)n2nc(C3=CCOCC3)nc2n1CC(=O)Nc1ccc(C(F)(F)F)cc1Cl [Compound I-14, N-[2-chloro-4-(trifluoromethyl)phenyl]-2-[2-(3,6-dihydro-2H-pyran-4-yl)-5-ethyl-6-[4-(1H-indazole-7-carbonyl)piperazin-1-yl]-7-oxo-4H,7H-[1,2,4]triazolo[1,5-a]pyrimidin-4-yl]acetamide]
